According to patent US7834011B2, “Heterocyclylalkyl derivatives as novel inhibitors of histone deacetylase” (Janssen Pharmaceutica N.V., priority 2006, dated 2010):
In brackets after ≈: the same amount, converted by molar mass. Like-named read-outs stand apart in the source and are kept apart here.

Legend:
[1] = system: A2780 ovarian carcinoma cells; assay: Antiproliferative activity on A2780 cells (MTT); type: cell-based; settings: Homo sapiens, 96 h, four days of incubation, read-out: Cellular activity pIC50 C.2 (converted)
Procedure: Cellular activity of the compounds of formula (I) was determined on A2780 tumour cells using a colorimetric assay for cell toxicity or survival (Mosmann Tim, Journal of Immunological Methods 65: 55-63, 1983)(see example C.2).
All compounds tested were dissolved in DMSO and further dilutions were made in culture medium. Final DMSO concentrations never exceeded 0.1% (v/v) in cell proliferation assays. Controls contained A2780 cells and DMSO without compound and blanks contained DMSO but no cells. MTT was dissolved at 5 mg/ml in PBS. A glycine buffer comprised of 0.1 M glycine and 0.1 M NaCl buffered to pH 10.5 with NaOH (1 N) was prepared (all reagents were from Merck).
The human A2780 ovarian carcinoma cells (a kind gift from Dr. T. C. Hamilton [Fox Chase Cancer Centre, Pennsylvania, USA]) were cultured in RPMI 1640 medium supplemented with 2 mM L-glutamine, 50 μg/ml gentamicin and 10% fetal calf serum. Cells were routinely kept as monolayer cultures at 37° C. in a humidified 5% CO2 atmosphere. Cells were passaged once a week using a trypsin/EDTA solution at a split ratio of 1:40. All media and supplements were obtained from Life Technologies. Cells were free of mycoplasma contamination as determined using the Gen-Probe Mycoplasma Tissue Culture kit (supplier: BioMérieux).
Cells were seeded in NUNC™ 96-well culture plates (Supplier: Life Technologies) and allowed to adhere to the plastic overnight. Densities used for plating were 1500 cells per well in a total volume of 200 μl medium. After cell adhesion to the plates, medium was changed and drugs and/or solvents were added to a final volume of 200 μl. Following four days of incubation, medium was replaced by 200 μl fresh medium and cell density and viability was assessed using an MTT-based assay. To each well, 25 μl MTT solution was added and the cells were further incubated for 2 hours at 37° C. The medium was then carefully aspirated and the blue MTT-formazan product was solubilized by addition of 25 μl glycine buffer followed by 100 μl of DMSO. […] Within an experiment, the results for each experimental condition are the mean of 3 replicate wells. For initial screening purposes, compounds were tested at a single fixed concentration of 10^−6 M. For active compounds, the experiments were repeated to establish full concentration-response curves. For each experiment, controls (containing no drug) and a blank incubation (containing no cells or drugs) were run in parallel. The blank value was subtracted from all control and sample values. For each sample, the mean value for cell growth (in absorbance units) was expressed as a percentage of the mean value for cell growth of the control. […] Herein the effects of test compounds are expressed as pIC50 (the negative log value of the IC50-value)(see Table F-2).

[2] = not given; remark: listed apart in the source
p21 promoter = assay: p21 induction in vivo method C.6.c (reporter tumour fluorescence in nude mice); settings: 20-40 mpk daily during 6 days, orally or intraveinally, ranked inactive, weaker, identical or better than R306465
Procedure: The last method is an in vivo method wherein mice are used for screening the pharmaceutical activity of a compound. The above described stably transformed tumour cells can be administered to mice in an amount sufficient to effect production of a tumour. After the tumour cells had sufficient time to form a tumour, a potentially active compound can be administered to the animals and the effect of said compound on the tumour cells is evaluated by measuring the expression of the reporter gene. Incubation with pharmaceutical active compounds will result in an increase of reporter gene expression compared to the control levels (see example C.6.c.)
A selected clone was injected subcutaneous (10^7 cells/200 μl) into the flank of nude mice and a calliper measurable tumour was obtained after 12 days. From day 12 on, animals were dosed, orally or intraveinally, daily during 6 days with solvent and 20-40 mpk compound (4-10 animals each). Tumours were evaluated for fluorescence by the in-house developed Automated Whole Body Imaging System (Fluorescent stereomicroscope type Olympus® SZX12 equipped with a GFP filter and coupled to a CCD camera type JAI® CV-M90 controlled by a software package based on the IMAQ Vision Software from National Instruments®). As reference, compound R306465 (WO03/76422) was used.

[3] = Solubility at pH 2.3 (chemiluminescent nitrogen detector); type: physicochemical; settings: pH 2.3, aqueous buffer; read-out: Solubility C.3.c. pH = 2.3
From the text: In a third method the solubility of a compound at different pH's can be measured with the use of a Chemiluminescent Nitrogen Detector (see example C.3.c).
The solubility of a compound, at pH 2.3, can also be measured with the use of a chemiluminescent nitrogen detector (see Table F-2).

[4] = target: histone deacetylase (HeLa nuclear extracts); assay: In vitro assay for inhibition of histone deacetylase with fluorescent-labelled substrate (Fluor de Lys); type: biochemical
From the text: The in vitro assay for inhibition of histone deacetylase (see example C.1) measures the inhibition of HDAC enzymatic activity obtained with the compounds of formula (I).
The HDAC Fluorescent Activity Assay/Drug Discovery Kit of Biomol (cat. No: AK-500-0001) was used. The HDAC Fluorescent Activity Assay is based on the Fluor de Lys (Fluorogenic Histone deAcetylase Lysyl) substrate and developer combination. The Fluor de Lys substrate, comprises an acetylated lysine side chain. Deacetylation of the substrate sensitizes the substrate so that, in the second step, treatment with the Fluor de Lys developer produces a fluorophore.
HeLa nuclear extracts (supplier: Biomol) were incubated at 60 μg/ml with 75 μM of substrate. The Fluor de Lys substrate was added in a buffer containing 25 mM Tris, 137 mM NaCl, 2.7 mM KCl and 1 mM MgCl2.6H2O at pH 7.4. After 30 min, 1 volume of the developer was added. The fluorophore was excited with 355 nm light and the emitted light (450 nm) was be detected on a fluorometric plate reader.
For each experiment, controls (containing HeLa nuclear extract and buffer), a blank incubation (containing buffer but no HeLa nuclear extract) and samples (containing compound dissolved in DMSO and further diluted in buffer and HeLa nuclear extract) were run in parallel. In first instance, compounds were tested at a concentration of 10^−5M. […] All sample were tested 4 times. In each test the blank value was subtracted from both the control and the sample values. The control sample represented 100% of substrate deactylation. For each sample the fluorescence was expressed as a percentage of the mean value of the controls. […] Herein the effects of test compounds are expressed as pIC50 (the negative log value of the IC50-value) (see Table F-2).

[5] = Kinetic solubility in aqueous media C.3.a (nephelometer); type: physicochemical; settings: aqueous buffer, kinetic from dmso stock; phosphate citrate buffer pH 7.4, turbidity; read-out: Kinetic solubility score (C.3.a)
Procedure: The solubility of a compound measures the ability of a compound to stay in solution. In a first method the ability of a compound to stay in aqueous solution upon dilution (see example C.3.a) is measured. DMSO-stock solutions are diluted with a single aqueous buffer solvent in 3 consecutive steps. For every dilution turbidity is measured with a nephelometer.
In the first dilution step, 10 μl of a concentrated stock-solution of the active compound, solubilized in DMSO (5 mM), was added to 100 μl phosphate citrate buffer pH 7.4 and mixed. In the second dilution step, an aliquot (20 μl) of the first dilution step was further dispensed in 100 μl phosphate citrate buffer pH 7.4 and mixed. Finally, in the third dilution step, a sample (20 μl) of the second dilution step was further diluted in 100 μl phosphate citrate buffer pH 7.4 and mixed. All dilutions were performed in 96-well plates. Immediately after the last dilution step the turbidity of the three consecutive dilution steps were measured with a nephelometer. Dilution was done in triplicate for each compound to exclude occasional errors. Based on the turbidity measurements a ranking is performed into 3 classes. Compounds with high solubility obtained a score of 3 and for this compounds the first dilution is clear. Compounds with medium solubility obtained a score of 2. […]

[6] = Metabolic stability with rat hepatocytes cell culture C.5.b; type: in vitro ADME; settings: male, Sprague Dowley, rat hepatocyte cell cultures, read-out: in vitro half-life
From the text: Metabolism of drugs means that a lipid-soluble xenobiotic or endobiotic compound is enzymatically transformed into (a) polar, water-soluble, and excretable metabolite(s). The major organ for drug metabolism is the liver. […] However, some metabolites may have enhanced activity or toxic effects. Thus drug metabolism may include both “detoxication” and “toxication” processes. One of the major enzyme systems that determine the organism's capability of dealing with drugs and chemicals is represented by the cytochrome P450 monooxygenases, which are NADPH dependent enzymes. Metabolic stability of compounds can be determined in vitro with the use of subcellular human tissue (see example C.5.a.). Here metabolic stability of the compounds is expressed as % of drug metabolised after 15 minutes incubation of these compounds with microsomes. Quantitation of the compounds was determined by LC-MS analysis. Metabolic stability of compounds can also be determined by calculating the half live of compounds in rat hepatocyte cells (see example C.5.b.).
Rat hepatocytes were isolated from male Sprague Dowley rats. The compounds were dissolved to a 5 mM stock solution in 100% DMSO and incubated at a final concentration of 5 μM for 0, 15, 30, 60 and 120 min with rat hepatocyte cell cultures (0.5 million viable cells/0.5 ml) using 24-well plates.
Samples were prepared for LC-MS by addition of two volumes of DMSO. The samples were thoroughly shaken and subsequently centrifuged at 900 g for 10 min (room temperature). All experiments were performed in triplicate. Of the resulting supernatant 50 μl was analysed by LC-MS.
For LC-MS, elution of samples was performed on a Hypersil BDS C18 column (50×4.6 mm, 5 μm, Thermohypersil, UK). […]
Total injection volume of samples was 50 μL. […] The mass spectrometer was operated in positive ion mode in SIM adjusted to the mass of M+H with a scan width of 1 Da for quantification purposes. […] The metabolic stability of compounds in rat hepatocytes was expressed as in vitro half-lives. […]

Q: Which “% metabolism” value (human, 15 min, 5 μM) does the source give for `COc1cc(N)c(Cl)cc1C(=O)NC1CCN(CCCOc2ccc(F)cc2)CC1OC` (centres unmarked) [Cisapride] here?
A: 45%

Q: What does the source list for `Cn1nc(CNCC2CCN(c3ncc(C(=O)NO)cn3)CC2)c2ccccc21` [Compound 1]?
A: IC50 [1]: 20 nM; melting point [2]: 197 °C; tumour fluorescence ranked against R306465 (p21 promoter): better than R306465; solubility [3]: 2500 µg/mL (≈ 6.32 mM); Enzymatic activity pIC50 C.1 [4]: 8.4

Q: For `Cn1nnc2ccc(CNCC3CCN(c4ncc(C(=O)NO)cn4)CC3)cc21` [Compound 2], which IC50 [1] is on record?
A: 251 nM

Q: What about the melting point [2] of the same compound?
A: 206 °C

Q: What about the solubility kinetic [5] of the same compound?
A: > 455 µM

Q: And the solubility [3]?
A: 2100 µg/mL (≈ 5.3 mM)

Q: What about the “Enzymatic activity pIC50 C.1” value [4] of the same compound?
A: 8.1

Q: With `O=C(NO)c1cnc(N2CCC(CNCc3n[nH]c4ccccc34)CC2)nc1` [Compound 22] as the compound, how does the IC50 [1] read?
A: 79.4 nM

Q: And the solubility [3]?
A: 2200 µg/mL (≈ 5.77 mM)

Q: What about the half-life at 5 μM [6] of the same compound?
A: 30 to 55 min

Q: What about the “Enzymatic activity pIC50 C.1” value [4] of the same compound?
A: 9.4

Q: Which half-life at 5 μM [6] does the source give for `O=C(NO)c1cnc(N2CCN(S(=O)(=O)c3ccc4ccccc4c3)CC2)nc1` [Compound R306465, reference compound] here?
A: 8 min

Q: Which “% metabolism” value (15 min incubation with microsomes, compound 5 μM) does the source give for `CCCO` [propanol] here?
A: 25%
